# Laboratory results taken from patent US11147272B2, “Pyridone compounds and agricultural and horticultural fungicides comprising the same as active ingredients” (MITSUI CHEMICALS AGRO, INC., priority 2017, dated 2021).
# Tests used:
# [1] = system: Alternaia brassicicola; assay: Test Example C: Alternaria sooty spot on cabbage; format: in vivo; details: Alternaria sooty spot on cabbage; control value class
# Description: Seeds of a test plant (cabbage variety: Shikidori) were planted and cultivated until the cotyledons extended.
# <Control Value> Control value=100{1−(n/3)}
# [2] = system: Blumeria graminis f. sp. hordei; assay: Test Example D: Powdery mildew on barley; details: Powdery mildew on barley; control value class
# Description: Seeds of a test plant (barley variety: Akashinriki) were planted and cultivated until the first leaves appeared. In the test, the inventive compounds were dissolved into dimethyl sulfoxide-methanol mixture solution (volume ratio: 9/1), and the resultant solutions were diluted with well water to a concentration of 250 ppm to obtain the drug solutions. The drug solutions were sprayed to the test plant (2.5 ml/pot). After the drug solutions dried, conidia of Blumeria graminis f. sp. hordei were inoculated to the plant by shaking off. The degrees of disease development were investigated 6 to 10 days after the inoculation, and the effectiveness of the drug solutions was evaluated.
# In Test Examples described above, the degrees of disease development were evaluated in increments of 0.05 from 0 (as no incidence of disease) to 3 (as the degree of disease development in an untreated plant group). Further, control values were calculated using the following equation based on the degree of disease development.
# n=Degree of disease development in each treated group
# [3] = system: Botrytis cinerea; assay: Test Example B: Gray mold on tomato; details: Gray mold on tomato; control value class
# [4] = system: Puccinia recondita; assay: Test Example E: Brown rust on wheat; format: in vivo; details: Brown rust on wheat; control value class
# [5] = system: Magnaporthe grisea; assay: whole plant or invertebrate; format: in vivo; details: Blast on rice; control value class
# [6] = system: Colletotrichum orbiculare; assay: Test Example H: Anthracnose on cucumber; details: Anthracnose on cucumber; 250 ppm spray, 6 to 10 days after inoculation
# [7] = system: Phytophthora infestans; assay: whole plant or invertebrate; format: in vivo; details: Late blight on tomato; control value class
# [8] = system: Plasmopara viticola; assay: Test Example G: Downy mildew on vine; details: Downy mildew on vine; 250 ppm spray, 7 to 10 days after inoculation
Compound,Test C control value [1],Test D control value [2],Test B control value [3],Test E control value [4],Test A control value [5],Test H control value [6],Test F control value [7],Test G control value [8]
CCn1c(-c2ccc(C#N)cc2)c(C=O)cc(Cl)c1=O [compound 288],H (more than 50% control value),L (50% or less control value),L (50% or less control value),L (50% or less control value),L (50% or less control value),L (50% or less control value),L (50% or less control value),L (50% or less control value)
CCn1c(-c2ccc(F)cc2)c(C=O)cc(Cl)c1=O [compound 290],H (more than 50% control value),L (50% or less control value),L (50% or less control value),L (50% or less control value),L (50% or less control value),L (50% or less control value),H (more than 50% control value),L (50% or less control value)
CCCCCCc1ccc(=O)n(CC)c1-c1ccc(F)cc1Cl [compound 291],L (50% or less control value),H (more than 50% control value),L (50% or less control value),H (more than 50% control value),L (50% or less control value),H (more than 50% control value),L (50% or less control value),L (50% or less control value)
CCCCCCc1cc(Cl)c(=O)n(CC)c1-c1ccc(F)cc1Cl [compound 292],H (more than 50% control value),H (more than 50% control value),H (more than 50% control value),L (50% or less control value),L (50% or less control value),L (50% or less control value),L (50% or less control value),L (50% or less control value)
CCCCCCc1cc(Br)c(=O)n(CC)c1-c1ccc(F)cc1Cl [compound 293],H (more than 50% control value),H (more than 50% control value),L (50% or less control value),L (50% or less control value),L (50% or less control value),L (50% or less control value),L (50% or less control value),L (50% or less control value)
CCn1c(-c2ccc(F)cc2Cl)c(C=O)cc(Cl)c1=O [compound 294],H (more than 50% control value),L (50% or less control value),H (more than 50% control value),H (more than 50% control value),L (50% or less control value),L (50% or less control value),L (50% or less control value),H (more than 50% control value)
C=Cc1cc(Cl)c(=O)n(CC)c1-c1ccc(F)cc1Cl [compound 295],H (more than 50% control value),H (more than 50% control value),H (more than 50% control value),H (more than 50% control value),L (50% or less control value),L (50% or less control value),H (more than 50% control value),L (50% or less control value)
